Measurements reported in US5329012A, “Bis(acyloxmethyl)imidazole compounds” (The Research Foundation of State University of New York, priority 1987, dated 1994).
Values joined by “and” are separate entries in the source; they are usually repeats but may differ in a detail not shown here. Equal values may be shown once. Read-outs that look alike come from different tables or passages of the source.

Legend:
[1] = system: lymphocytic leukemia P-388; assay: P-388 lymphocytic leukemia test in mice (NCI Protocol 1.200); format: in vivo, CDF1 female mice; settings: for Tox.Day Surv. (survivors/animals tested): day 5
Experimental: Various bis(acyloxymethyl)imidazole derivatives prepared in accord with Examples I-XVIII and designated Samples A-J, were tested for anti-tumor activity in vivo using the lymphocytic leukemia P-388 test procedure in mice with Samples A and B representing controls. The test system was that employed by the National Cancer Institute (NCI) for the preliminary screening of anti-tumor agents, according to Protocol 1.200 (Cancer Chemo. Reports Part 3, Vol. 3, No. 2, page 9; 1972). In the study ascitic fluid containing 6×10^6 cells was implanted in the peritoneal cavity of CDF1 female mice. Each imidazole was given in a single injection, at four to six different dose levels (5-6 mice/dose level) daily for five (5) days beginning 24 hours after tumor innoculation. The control animals received saline. Test criteria was in accord with NCI protocol as follows: toxicity day evaluations were carried out on day 5 (number of survivors/number of animals tested); % T/C data was calculated through mean survival time [% T/C=(MST treated/MST control)x100, where MST=mean survival time]; BWD refers to the body weight difference (grams) of test animals compared to control animals; KE refers to the log of the tumor cell population at the end of treatment relative to tumor cell population before treatment.
Table I sets out the identification of the compounds corresponding to the samples used in this and further Examples. Table II sets out the results of the P-388 tests.

[2] = system: LOX (amelanotic melanoma) human tumor xenograft; assay: LOX human amelanotic melanoma xenograft, survival evaluation; format: in vivo, human tumor in female athymic (nude) mice; settings: single dose
Experimental: (§1) Tumor cells were inoculated ip(intraperitonal) into female, athymic, mice, being either MX-1 (mammary) or LOX (amelanotic melanoma) human tumor xenograph models. The human xenograft tumors were formed by heterotransplantation of surgically removed human tumors into the subrenal capsule of the nude mice. […] The hydrochloride salts of the compounds, designated H, K, and L, and the free base of H, as identified on Table I were administered to the viable human xenograft tumors by a single dose subcutaneous renal cavity (MX-1) injection or interperitonal (LOX) injection to the nude mice test animal in a suspension of 0.9% aqueous sodium chloride solution with "tween-80" and distilled water. The tested compounds were tested against a known cancer tumor inhibiting compound (control) 2,3-dihydro-5-(3'-4'-dichloropheny1)-6,7-bis(n-propylcarbanoxymethylcarbonate)-1H-pyrollizine.
(§2) In both the MX-1 and LOX model, results were expressed as a percentage of the test animal evaluation (T) compared to that for the control (C) and was reported as %T/C. These values are based on all mice in the test.
In the LOX model %T/C was evaluated by survival, meaning that the mean survival time of mice of the control group surviving (C) is compared to the mean survival time of mice who survived the test with treatment (T).
(§3) The data presented comprises findings at optimal dosages of particularly effective compounds of the invention as compared to the control.

[3] = system: MX-1 (mammary) human tumor xenograft; assay: MX-1 human mammary tumor xenograft (subrenal capsule), tumor weight evaluation; format: in vivo, human tumor in female athymic (nude) mice; settings: single dose
Experimental: as §1, §2
In the MX-1 model %T/C was evaluated from an estimate of tumor weight in untreated mice as compared to an estimate of tumor weight in treated mice. In such tumor weight evaluation, a low %T/C indicates effective treatment as the tumors of the treated mice are smaller than tumors of the untreated control mice.
as §3

[4] = 100 mg/kg/inj, daily for 5 days
[5] = 200 mg/kg/inj, daily for 5 days
[6] = 400 mg/kg/inj, daily for 5 days
[7] = Mus musculus, P388, 120 h, read-out: % T/C (mean survival time)
[8] = 12.5 mg/kg/inj, daily for 5 days
[9] = optimal dosage 100 mg/kg, free base, listed as H (Free base)
[10] = optimal dosage 115 mg/kg, hydrochloride salt
[11] = optimal dosage 200 mg/kg, free base
[12] = 6.25 mg/kg/inj, daily for 5 days

Structure (SMILES) | BWD (body weight difference vs control) ([1]; 50 mg/kg/inj, daily for 5 days) [g] | KE (log tumor cell population end vs before treatment) ([1]; 50 mg/kg/inj, daily for 5 days) | Tox.Day Surv. (survivors/animals tested) ([1]; 50 mg/kg/inj, daily for 5 days) | BWD (body weight difference vs control) [1, 4] [g] | KE (log tumor cell population end vs before treatment) [1, 4] | Tox.Day Surv. (survivors/animals tested) [1, 4] | BWD (body weight difference vs control) [1, 5] [g] | KE (log tumor cell population end vs before treatment) [1, 5] | Tox.Day Surv. (survivors/animals tested) [1, 5] | BWD (body weight difference vs control) [1, 6] [g] | KE (log tumor cell population end vs before treatment) [1, 6] | response vs control in vivo at 50 mg/kg [1, 7] [%] | response vs control in vivo at 100 mg/kg [1, 7] [%] | response vs control in vivo at 200 mg/kg [1, 7] [%] | BWD (body weight difference vs control) [1, 8] [g] | KE (log tumor cell population end vs before treatment) [1, 8] | BWD (body weight difference vs control) ([1]; 25 mg/kg/inj, daily for 5 days) [g] | KE (log tumor cell population end vs before treatment) ([1]; 25 mg/kg/inj, daily for 5 days) | Tox.Day Surv. (survivors/animals tested) [1, 8] | Tox.Day Surv. (survivors/animals tested) ([1]; 25 mg/kg/inj, daily for 5 days) | also measured
CNC(=O)OCc1nc(SC)n(Cc2ccccc2)c1COC(=O)NC [E, 1-benzyl-2-methylthio-4,5-bis-(N-methylcarbonyloxymethyl)imidazole] | 0.9 | -1.19 | 6/6 | 0.4 | -1.19 | 6/6 | -0.4 | -0.44 | 6/6 | -1.2 | -0.71 | 116 | 116 | 129 | – | – | – | – | – | – | Tox.Day Surv. (survivors/animals tested) [1, 6]: 6/6; response vs control in vivo at 400 mg/kg [1, 7]: 127%
CSc1nc(COC(=O)NC(C)C)c(COC(=O)NC(C)C)n1Cc1ccccc1 [F, 1-benzyl-2-methylthio-4,5-bis-[N-(2-propyl)carbonyloxymethyl)imidazole] | -0.5 | -0.42 | – | -0.3 | -0.39 | – | -2.2 | -0.32 | – | -3.2 | toxic | – | – | – | -0.2 | -1.64 | -1.5 | -1.59 | – | – | response vs control in vivo at 12.5 mg/kg ([1]; Mus musculus, P388, 120 h, 12.5 mg/kg/inj, daily for 5 days, read-out: % T/C (mean survival time)): 98%; response vs control in vivo at 25 mg/kg ([1]; Mus musculus, P388, 120 h, 25 mg/kg/inj, daily for 5 days, read-out: % T/C (mean survival time)): 101%; response vs control in vivo at 50 mg/kg ([1]; Mus musculus, P388, 120 h, 50 mg/kg/inj, daily for 5 days, read-out: % T/C (mean survival time)): 110%; response vs control in vivo at 100 mg/kg ([1]; Mus musculus, P388, 120 h, 100 mg/kg/inj, daily for 5 days, read-out: % T/C (mean survival time)): 111%; response vs control in vivo at 200 mg/kg ([1]; Mus musculus, P388, 120 h, 200 mg/kg/inj, daily for 5 days, read-out: % T/C (mean survival time)): 116%
CNC(=O)OCc1nc(-c2ccccc2)n(C)c1COC(=O)NC [G, 1-methyl-2-phenyl-4,5-bis-(N-methylcarbonyloxymethyl)imidazole] | -0.8 | -1.38 | 5/5 | -1.0 | -1.31 | 5/5 | -2.2 | -1.28 | 5/5 | – | – | 112 | 116 | 119 | -0.2 | -1.56 | 0.0 | -1.44 | 5/5 | 5/5 | response vs control in vivo at 12.5 mg/kg [1, 7]: 98%; response vs control in vivo at 25 mg/kg [1, 7]: 107%
CNC(=O)OCc1nc(SC)n(C)c1COC(=O)NC [H, 1-methyl-2-methylthio-4,5-bis-(N-methylcarbonyloxymethyl)imidazole] | -2.6 | 4.21 | 6/6 | -4.1 | 6.75 | 6/6 | – | – | – | – | – | 184 | 236 | – | -1.2 | 1.05 | -1.4 | 1.05 | 6/6 | 6/6 | LOX % T/C Survl. [2, 9]: 365% and 233%; LOX Cures [2, 9]: 5/6 and 2/6; LOX % T/C Survl. [2, 10]: 234%; LOX Cures [2, 10]: 2/6; MX-1 % T/C wt. ([3]; optimal dosage 100 mg/kg, free base): -73%; MX-1 % T/C wt. [3, 10]: -63%; MX-1 % T/C wt. [3, 11]: -56%; MX-1 Cures [3, 11]: 2/6; BWD (body weight difference vs control) [1, 12]: -0.7 g; KE (log tumor cell population end vs before treatment) [1, 12]: -0.83; Tox.Day Surv. (survivors/animals tested) [1, 12]: 5/6; response vs control in vivo at 6.25 mg/kg [1, 7]: 125%; response vs control in vivo at 12.5 mg/kg [1, 7]: 147%; response vs control in vivo at 25 mg/kg [1, 7]: 147%
